Experimental data from patent US20240190849A1, “AMINOPYRIMIDINE COMPOUNDS AND METHODS OF THEIR USE” (TYRA BIOSCIENCES, INC., priority 2021, published 2024).

Tests used:
[1] = system: UM-UC-14 (Bladder Cancer), FGFR3(S249C); test: Cancer cell viability assay (Cell Titer-Glo), UM-UC-14; assay type: cell-based; conditions: UMUC14, UM-UC-14 cells, 72 hours
Text: (§1) RT112/84, UM-UC-14, SNU-16 and KG-1 Cancer Cell Line Cell Viability Assays
(§2) To detect the change of intracellular ATP by Cell Titer-Glo@ and to evaluate the inhibitory effect of the compounds on cancer cell lines by determining the in vitro IC50 value of the compounds.
(§3) Cell Titer-Glo@ 2.0 Luminescent cell viability assay reagent was purchased from Promega (Madison, WI). RT112/84, SNU-16, and KG-1 cell lines were purchased from American Type Culture Collection (Manassas, VA). UM-UC-14 cell line was purchased from Sigma (St. Louis, MO). RT112/84, UM-UC-14, SNU-16, and KG-1 cells were cultured in RPMI1640 media supplemented with 10% fetal bovine serum. Cultures were maintained at 37° C. in a humidified atmosphere of 5% CO2 and 95% air.
(§4) Cell Viability Assay Procedure: Cells were plated in 96-well clear bottom/white plates (Corning #3903) at 10,000 cells/well in 100 μl of media, incubated overnight. The next day, test compound DMSO stock solutions were made at 10 mM and 2 μM final concentration. Compounds were then added to cells in a 9-dose, […] dilution series starting at 30 μM with an HP 300e Digital Dispenser (each dose was applied in triplicate). DMSO was backfilled to each well up to 301 nL total volume of test compound+DMSO, and a total of 301 nL DMSO was added to a control/no test compound well in triplicate. The cells in cell culture plates were incubated with the compounds at 37° C. and 5% CO2 for 72 hours. Then 50 μl of Cell Titer Glo 2.0 reagent was added to each well of the cell culture plates. The contents were covered from light and mixed on an orbital shaker at room temperature for 10 min. Luminescence was recorded by a Synergy H1 Microplate Reader (Biotek, Winooski, VT). Cells were assessed as a percentage of DMSO only treated control cells. Curves were plotted and IC50 values were calculated using the GraphPad Prism 8 program based on a sigmoidal dose-response equation (4 parameter).

[2] = system: KG-1 (Acute Myeloid Leukemia), FGFR1OP2-FGFR1 fusion; test: Cancer cell viability assay (Cell Titer-Glo), KG-1; assay type: cell-based; conditions: Homo sapiens, KG-1 cells, 72 hours
Text: as §1, §2, §3, §4

[3] = molecular target: T1, FGFR3 (V555M) (Homo sapiens, UniProt P22607, V555M); test: Kinase binding assay (kinase-tagged T7 phage, affinity beads, qPCR readout), FGFR3 (V555M); conditions: FGFR binding data
T1 construct: made in house; host or cells: E. coli derived from BL21, infected with T7 phage
T1 sequence (P22607 23-806 V555M): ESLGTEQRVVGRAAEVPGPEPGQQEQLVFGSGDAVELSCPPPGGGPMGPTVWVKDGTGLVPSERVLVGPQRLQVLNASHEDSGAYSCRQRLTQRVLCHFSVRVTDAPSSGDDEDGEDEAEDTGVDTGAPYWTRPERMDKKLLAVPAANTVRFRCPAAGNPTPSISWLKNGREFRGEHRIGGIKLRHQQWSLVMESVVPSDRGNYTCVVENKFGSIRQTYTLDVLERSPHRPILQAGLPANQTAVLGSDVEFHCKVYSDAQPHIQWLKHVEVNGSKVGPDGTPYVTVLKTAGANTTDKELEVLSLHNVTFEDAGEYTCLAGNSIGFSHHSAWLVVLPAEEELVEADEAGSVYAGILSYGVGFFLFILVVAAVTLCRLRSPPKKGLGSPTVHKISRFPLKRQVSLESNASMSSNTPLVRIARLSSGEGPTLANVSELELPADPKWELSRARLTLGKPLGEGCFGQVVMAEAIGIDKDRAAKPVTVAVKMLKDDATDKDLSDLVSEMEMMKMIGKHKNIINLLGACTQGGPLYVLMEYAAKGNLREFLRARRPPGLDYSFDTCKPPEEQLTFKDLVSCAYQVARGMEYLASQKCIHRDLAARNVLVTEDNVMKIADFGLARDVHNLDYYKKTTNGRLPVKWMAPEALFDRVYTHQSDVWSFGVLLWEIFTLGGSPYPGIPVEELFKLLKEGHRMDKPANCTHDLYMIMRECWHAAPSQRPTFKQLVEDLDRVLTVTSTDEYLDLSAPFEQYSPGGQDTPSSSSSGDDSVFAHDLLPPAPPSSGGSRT
In short: (§5)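 Competition binding: kinases displaced from biotinylated-ligand streptavidin beads by test compound in binding buffer (20% SeaBlock, 0.17×PBS, 0.05% Tween 20, 6 mM DTT), 1 hour at room temperature, 0.9% DMSO. Bead-bound kinase eluted with 0.5 μM free ligand, quantified by qPCR. Kd from 11-point 3-fold dilutions, Hill slope fixed at −1.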

[4] = molecular target: T2, FGFR1 (Homo sapiens, UniProt P11362); test: Kinase binding assay (kinase-tagged T7 phage, affinity beads, qPCR readout), FGFR1; conditions: FGFR binding data
T2 construct: made in house; host or cells: E. coli derived from BL21, infected with T7 phage
T2 sequence (P11362 22-822): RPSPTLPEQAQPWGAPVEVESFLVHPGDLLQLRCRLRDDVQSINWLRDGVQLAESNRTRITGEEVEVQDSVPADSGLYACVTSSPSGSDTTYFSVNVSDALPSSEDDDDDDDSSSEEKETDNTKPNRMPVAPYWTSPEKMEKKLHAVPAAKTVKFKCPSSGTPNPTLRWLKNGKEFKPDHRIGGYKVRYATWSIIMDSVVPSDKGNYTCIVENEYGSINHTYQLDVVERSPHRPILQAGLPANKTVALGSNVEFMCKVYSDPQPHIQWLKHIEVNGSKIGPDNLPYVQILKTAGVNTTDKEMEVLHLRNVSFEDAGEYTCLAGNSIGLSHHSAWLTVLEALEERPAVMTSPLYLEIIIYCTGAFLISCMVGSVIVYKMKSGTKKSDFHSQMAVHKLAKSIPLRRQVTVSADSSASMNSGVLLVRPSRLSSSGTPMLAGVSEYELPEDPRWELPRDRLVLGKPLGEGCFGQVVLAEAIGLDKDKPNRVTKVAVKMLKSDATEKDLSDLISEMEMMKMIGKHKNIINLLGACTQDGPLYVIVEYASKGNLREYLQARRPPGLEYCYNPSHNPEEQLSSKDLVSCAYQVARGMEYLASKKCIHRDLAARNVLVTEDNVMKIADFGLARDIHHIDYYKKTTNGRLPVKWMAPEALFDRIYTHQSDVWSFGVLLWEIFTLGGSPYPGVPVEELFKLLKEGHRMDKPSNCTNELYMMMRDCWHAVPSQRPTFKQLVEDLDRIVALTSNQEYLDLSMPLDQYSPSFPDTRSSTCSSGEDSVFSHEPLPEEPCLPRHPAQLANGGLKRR
In short: as §5

[5] = molecular target: T3, FGFR3 (Homo sapiens, UniProt P22607); test: Kinase binding assay (kinase-tagged T7 phage, affinity beads, qPCR readout), FGFR3; conditions: FGFR binding data
T3 construct: made in house; host or cells: E. coli derived from BL21, infected with T7 phage
T3 sequence (P22607 23-806): as the sequence (P22607 23-806 V555M) above, with M533V counted along it
In short: as §5

[6] = system: SNU-16 (Gastric Carcinoma), FGFR2 amplification; test: Cancer cell viability assay (Cell Titer-Glo), SNU-16; assay type: cell-based; conditions: Homo sapiens, SNU-16 cells, 72 hours, read-out: SNU16 FGFR2 (IC50 nM)
In short: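 Cells seeded at 10,000/well in RPMI1640 with 10% FBS, then exposed 72 h at 37° C. to a 9-point 10-fold dilution series from 30 μM, in triplicate. Viability read as ATP luminescence (CellTiter-Glo 2.0) as percent of DMSO control; IC50 from 4-parameter sigmoidal fit.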

[7] = molecular target: T4, FGFR2 (Homo sapiens, UniProt P21802); test: Kinase binding assay (kinase-tagged T7 phage, affinity beads, qPCR readout), FGFR2; conditions: FGFR binding data
T4 construct: made in house; host or cells: E. coli derived from BL21, infected with T7 phage
T4 sequence (P21802 22-821): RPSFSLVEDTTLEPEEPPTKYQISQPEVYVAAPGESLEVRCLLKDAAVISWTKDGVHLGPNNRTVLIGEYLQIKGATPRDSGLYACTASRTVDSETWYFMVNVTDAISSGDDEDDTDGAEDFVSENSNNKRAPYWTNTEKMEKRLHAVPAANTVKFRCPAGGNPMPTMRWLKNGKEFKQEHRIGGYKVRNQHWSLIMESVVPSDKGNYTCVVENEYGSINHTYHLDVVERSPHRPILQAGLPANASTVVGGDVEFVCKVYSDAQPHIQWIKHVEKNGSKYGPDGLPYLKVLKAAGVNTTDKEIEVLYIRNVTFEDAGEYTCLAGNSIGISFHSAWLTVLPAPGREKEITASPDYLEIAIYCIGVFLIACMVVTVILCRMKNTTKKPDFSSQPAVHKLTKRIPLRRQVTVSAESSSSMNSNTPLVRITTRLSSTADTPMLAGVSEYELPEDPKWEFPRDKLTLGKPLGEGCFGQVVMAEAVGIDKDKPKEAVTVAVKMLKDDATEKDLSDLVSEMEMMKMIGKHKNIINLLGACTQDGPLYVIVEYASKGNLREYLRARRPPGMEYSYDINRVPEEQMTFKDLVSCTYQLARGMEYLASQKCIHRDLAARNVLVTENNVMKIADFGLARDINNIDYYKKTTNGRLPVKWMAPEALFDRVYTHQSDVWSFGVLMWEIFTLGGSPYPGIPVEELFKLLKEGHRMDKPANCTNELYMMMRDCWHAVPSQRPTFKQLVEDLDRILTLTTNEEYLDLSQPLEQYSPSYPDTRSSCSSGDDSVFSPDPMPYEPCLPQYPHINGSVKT
In short: as §5

[8] = system: RT112/84 (Bladder Cancer), FGFR3-TACC3 fusion; test: Cancer cell viability assay (Cell Titer-Glo), RT112/84; assay type: cell-based; conditions: Homo sapiens, RT112/84 cells, 72 hours
Text: as §1, §2, §3, §4

| IC50 [1] [nM] | IC50 [2] [nM] | Kd [3] [nM] | Kd [4] [nM] | Kd [5] [nM] | IC50 [6] [nM] | Kd [7] [nM] | IC50 [8] [nM] | Compound |
| --- | --- | --- | --- | --- | --- | --- | --- | --- |
| 0.1 to 100 | 0.1 to 100 | 0.1 to 100 | 0.1 to 100 | 0.1 to 100 | 0.1 to 100 | 0.1 to 100 | 0.1 to 100 | C=CC(=O)Nc1ccc2c(-c3ccnc(Nc4cnn(CCO)c4)n3)cn(C)c2c1 [Example 106, N-[3-[2-[[1-(2-hydroxyethyl)pyrazol-4-yl]amino]pyrimidin-4-yl]-1-methyl-indol-6-yl]prop-2-enamide] |
| 0.1 to 100 | 0.1 to 100 | 0.1 to 100 | 0.1 to 100 | 0.1 to 100 |  | 0.1 to 100 | 0.1 to 100 | C=CC(=O)Nc1ccc2c(-c3nc(Nc4ccc(N5CCOCC5)cc4)ncc3F)cn(C)c2c1 [Example 57, N-[3-[5-Fluoro-2-(4-morpholinoanilino)pyrimidin-4-yl]-1-methyl-indol-6-yl]prop-2-enamide] |
| 0.1 to 100 | 0.1 to 100 | 0.1 to 100 | 0.1 to 100 | 0.1 to 100 |  | 0.1 to 100 | 0.1 to 100 | C=CC(=O)Nc1ccc2c(c1)c(C)cn2-c1nc(Nc2cnn(C)c2C)ncc1Cl [Example 40, N-[1-[5-chloro-2-[(1,5-dimethylpyrazol-4-yl)amino]pyrimidin-4-yl]-3-methyl-indol-5-yl]prop-2-enamide] |
| 0.1 to 100 | 0.1 to 100 | 0.1 to 100 | 0.1 to 100 | 0.1 to 100 |  | 0.1 to 100 | 0.1 to 100 | C=CC(=O)Nc1ccc2c(c1)c(C)cn2-c1nc(Nc2ccnn2C)ncc1Cl [Example 55, N-[1-[5-chloro-2-[(2-methylpyrazol-3-yl)amino]pyrimidin-4-yl]-3-methyl-indol-5-yl]prop-2-enamide] |
| 0.1 to 100 | 0.1 to 100 | 0.1 to 100 | 0.1 to 100 | 0.1 to 100 |  | 0.1 to 100 | 0.1 to 100 | C=CC(=O)Nc1ccc2c(c1)c(C)cn2-c1nc(Nc2cn(C)nc2C)ncc1Cl [Example 35, N-[1-[5-chloro-2-[(1,3-dimethylpyrazol-4-yl)amino]pyrimidin-4-yl]-3-methyl-indol-5-yl]prop-2-enamide] |
| 0.1 to 100 | 0.1 to 100 | 0.1 to 100 | 0.1 to 100 | 0.1 to 100 |  | 0.1 to 100 | 0.1 to 100 | C=CC(=O)Nc1cnc2c(c1)c(C)cn2-c1nc(Nc2ccnn2C)ncc1C [Example 85, N-[3-methyl-1-[5-methyl-2-[(2-methylpyrazol-3-yl)amino]pyrimidin-4-yl]pyrrolo[2,3-b]pyridin-5-yl]prop-2-enamide] |
| 0.1 to 100 | 0.1 to 100 | 0.1 to 100 | 0.1 to 100 | 0.1 to 100 |  | 0.1 to 100 | 0.1 to 100 | C=CC(=O)Nc1ccc2c(c1)c(C)cn2-c1nc(Nc2ccn(C)n2)ncc1C [Example 81, N-[3-methyl-1-[5-methyl-2-[(1-methylpyrazol-3-yl)amino]pyrimidin-4-yl]indol-5-yl]prop-2-enamide] |

The next lines start with the compound.

| Compound | IC50 [1] [nM] | IC50 [2] [nM] | Kd [3] [nM] | Kd [4] [nM] | Kd [5] [nM] | IC50 [6] [nM] | Kd [7] [nM] | IC50 [8] [nM] |
| --- | --- | --- | --- | --- | --- | --- | --- | --- |
| C=CC(=O)Nc1ccc2c(c1)c(C)cn2-c1nc(Nc2ccc(OC)c(OC)c2)ncc1Cl [Example 23, N-[1-[5-chloro-2-(3,4-dimethoxyanilino)pyrimidin-4-yl]-3-methyl-indol-5-yl]prop-2-enamide] | 0.1 to 100 | 0.1 to 100 | 0.1 to 100 | 0.1 to 100 | 0.1 to 100 |  | 0.1 to 100 | 0.1 to 100 |
| C=CC(=O)Nc1ccc2c(-c3nc(Nc4cnn(C)c4)ncc3Cl)cn(C)c2c1 [Example 30, N-[3-[5-Chloro-2-[(1-methylpyrazol-4-yl)amino]pyrimidin-4-yl]-1-methyl-indol-6-yl]prop-2-enamide] | 0.1 to 100 | 0.1 to 100 | 0.1 to 100 | 0.1 to 100 | 0.1 to 100 |  | 0.1 to 100 | 0.1 to 100 |
| C=CC(=O)Nc1ccc2c(ccn2-c2nc(Nc3ccc(OCCN4CCOCC4)cc3)ncc2Cl)c1 [Example 10, N-[1-[5-chloro-2-[4-(2-morpholinoethoxy)anilino]pyrimidin-4-yl]indol-5-yl]prop-2-enamide] | 0.1 to 100 | 0.1 to 100 | 0.1 to 100 | 100 to 250 | 0.1 to 100 |  | 100 to 250 | 0.1 to 100 |
| C=CC(=O)Nc1ccc2c(c1)c(C)cn2-c1nc(Nc2cn(C)nc2OC)ncc1Cl [Example 26, N-[1-[5-chloro-2-[(3-methoxy-1-methyl-pyrazol-4-yl)amino]pyrimidin-4-yl]-3-methyl-indol-5-yl]prop-2-enamide] | 0.1 to 100 | 0.1 to 100 | 0.1 to 100 | 0.1 to 100 | 0.1 to 100 |  | 0.1 to 100 | 100 to 250 |
| C=CC(=O)Nc1ccc2c(c1)c(C)cn2-c1nc(Nc2ccc(N3CCOCC3)c(F)c2)ncc1Cl [Example 22, N-[1-[5-chloro-2-(3-fluoro-4-morpholino-anilino)pyrimidin-4-yl]-3-methyl-indol-5-yl]prop-2-enamide] | 0.1 to 100 | 0.1 to 100 | 0.1 to 100 | 0.1 to 100 | 0.1 to 100 |  | 0.1 to 100 | 0.1 to 100 |
| C=CC(=O)Nc1ccc2c(c1)c(C)cn2-c1nc(Nc2ccc(N3CCOCC3)cc2)ncc1Cl [Example 24, N-[3-methyl-1-[5-chloro-2-(4-morpholinoanilino)pyrimidin-4-yl]indol-5-yl]prop-2-enamide] | 0.1 to 100 | 0.1 to 100 | 0.1 to 100 | 0.1 to 100 | 0.1 to 100 |  | 0.1 to 100 | 0.1 to 100 |
| C=CC(=O)Nc1ccc2c(ccn2-c2nc(Nc3cnn(C)c3)ncc2Cl)c1 [Example 2, N-[1-[5-chloro-2-[(1-methylpyrazol-4-yl)amino]pyrimidin-4-yl]indol-5-yl]prop-2-enamide] | 0.1 to 100 | 0.1 to 100 | 0.1 to 100 | 0.1 to 100 | 0.1 to 100 |  | 0.1 to 100 | 0.1 to 100 |
| C=CC(=O)Nc1ccc2c(c1)c(C)cn2-c1nc(Nc2ccc(OCCN3CCOCC3)cc2)ncc1C [Example 19, N-[3-methyl-1-[5-methyl-2-[4-(2-morpholinoethoxy)anilino]pyrimidin-4-yl]indol-5-yl]prop-2-enamide] | 0.1 to 100 | 0.1 to 100 | 0.1 to 100 | 0.1 to 100 | 0.1 to 100 |  | 0.1 to 100 | 0.1 to 100 |
| C=CC(=O)Nc1ccc2c(c1)c(C)cn2-c1nc(Nc2cnn(C)c2)ncc1C [Example 8, N-[3-Methyl-1-[5-methyl-2-[(1-methylpyrazol-4-yl)amino]pyrimidin-4-yl]indol-5-yl]prop-2-enamide] | 0.1 to 100 | 0.1 to 100 | 0.1 to 100 | 0.1 to 100 | 0.1 to 100 |  | 0.1 to 100 | 0.1 to 100 |
| C=CC(=O)Nc1ccc2c(-c3nc(Nc4ccc(N5CCOCC5)cc4)ncc3Cl)cn(C)c2c1 [Example 27, N-[3-[5-chloro-2-(4-morpholinoanilino)pyrimidin-4-yl]-1-methyl-indol-6-yl]prop-2-enamide] | 0.1 to 100 | 0.1 to 100 | 0.1 to 100 | 0.1 to 100 | 0.1 to 100 |  | 0.1 to 100 | 0.1 to 100 |
| C=CC(=O)Nc1ccc2c(ccn2-c2nc(Nc3cccc(OCCN4CCOCC4)c3)ncc2Cl)c1C [Example 7, N-[1-[5-chloro-2-[3-(2-morpholinoethoxy)anilino]pyrimidin-4-yl]-4-methyl-indol-5-yl]prop-2-enamide] | > 1000 | 250 to 1000 | 0.1 to 100 | 0.1 to 100 | 100 to 250 |  | 100 to 250 | > 1000 |
